Literature values, collected in PubChem BioAssay AID1259409 (Chemical Carcinogenesis Research Information System (CCRIS), 2018).
Several values for one entry are separate records, joined by “and”; a condition that tells them apart may be missing. Equal entries are not always repeated.

Tested on: rodent chemically induced tumor inhibition, incidence and multiplicity
Experiment: CCRIS tumor inhibitor studies
Conditions: Carcinogen: 7,12-DIMETHYLBENZ[A]ANTHRACENE, 57-97-6

Row | Compound | tumour outcome (control, treated, inhibition, significance) (Dose [Inhibitor]: 0, 0.2 UMOL 2/WK FOR 19 WK BEGINNING 1 WK POST CARCINOGEN DOSE (STUDY DURATION: 20 WK), Route [Inhibitor]: DERMAL, Species: MOUSE, Strain/Sex: ICR, Target Tissue: Type of Lesion: SKIN: PAPILLOMA, Dose [Carcinogen]: 50 UG ONCE, Promoter: 12-O-TETRADECANOYLPHORBOL-13-ACETATE, 16561-29-8) | tumour outcome (control, treated, inhibition, significance) (Dose [Inhibitor]: 0, 0.2 UMOL IN 100 µL ACETONE:DMSO (9:1) 2/WK FOR 20 WK APPLIED 30 MIN PRIOR TO EACH CARCINOGEN DOSE (STUDY DURATION: 20, Route [Inhibitor]: DERMAL, Species: MOUSE, Strain/Sex: ICR/FEMALE, Target Tissue: Type of Lesion: SKIN: PAPILLOMA, Dose [Carcinogen]: 50 UG IN 100 µL ACETONE ONCE, Promoter: 12-O-TETRADECANOYLPHORBOL-13-ACETATE, 16561-29-8) | tumour outcome (control, treated, inhibition, significance) (Dose [Inhibitor]: 1 MG/KG 3/WK BEGINNING 2 D AFTER DMBA TREATMENT (STUDY DURATION: 5 MO), Route [Inhibitor]: SUBCUTANEOUS, Species: RAT, Strain/Sex: SPRAGUE-DAWLEY/FEMALE, Target Tissue: Type of Lesion: MAMMARY GLAND: ADENOCARCINOMA, FIBROADENOMA, Dose [Carcinogen]: 5 MG IN 0.5 ML CORN OIL AT 50 D OF AGE, Promoter: NONE USED) | tumour outcome (control, treated, inhibition, significance) (Dose [Inhibitor]: 1 MG/KG 3/WK BEGINNING 2 D AFTER DMBA TREATMENT (STUDY DURATION: 5 MO), Route [Inhibitor]: SUBCUTANEOUS, Species: RAT, Strain/Sex: SPRAGUE-DAWLEY/FEMALE, Target Tissue: Type of Lesion: MAMMARY GLAND: ADENOCARCINOMA, FIBROADENOMA, Dose [Carcinogen]: 10 MG IN 0.5 ML CORN OIL AT 50 D OF AGE, Promoter: NONE USED) | tumour outcome (control, treated, inhibition, significance) (Dose [Inhibitor]: 1 MG/KG 3/WK BEGINNING 15 D AFTER DMBA TREATMENT (STUDY DURATION: 5 MO), Route [Inhibitor]: SUBCUTANEOUS, Species: RAT, Strain/Sex: SPRAGUE-DAWLEY/FEMALE, Target Tissue: Type of Lesion: MAMMARY GLAND: ADENOCARCINOMA, FIBROADENOMA, Dose [Carcinogen]: 5 MG IN 0.5 ML CORN OIL AT 50 D OF AGE, Promoter: NONE USED)
1 | C=C(CC[C@@H](C(=O)O)[C@H]1[C@H](O)C[C@@]2(C)C3=C(CC[C@]12C)[C@@]1(C)CC[C@H](OC(C)=O)C(C)(C)[C@@H]1CC3)C(C)C | 73%, 25%, 66%, not calculated | 73%, 27%, 63%, p<0.01 | – | – | –
2 | COc1ccc2c(c1)CCC(c1ccccc1)=C2c1ccc(OCCN2CCCC2)cc1 | – | – | 56%, 10%, 82%, not calculated and 34%, 1%, 97%, not calculated | 58%, 27%, 53%, not calculated and 38%, 10%, 74%, not calculated | 56%, 22%, 61%, not calculated and 34%, 5%, 85%, not calculated
